Assay results published in patent publication US7199129B2, “Derivatives of morphine-like opioid compounds” (Monash University, priority 2001, dated 2007).
“And” between values parts separate entries of the source, which are not always exact repeats. Equal entries are not always repeated.

How the values were obtained:
ICR mice = experiment: Radiant heat-induced tail-flick response assay in mice; format: in vivo; settings: IP; for % Inhibition (prolongation of tail-flick response time): 30 minutes; for Response Time (Seconds) 30 Mins., Average / Response Time (Seconds) 30 Mins.: 30 minutes after administration; for Response Time (Seconds) 30 Mins. / Response Time (Seconds) 0 Time: individual mice; for Response Time (Seconds) 30 Mins.: cut-off 15 seconds; for Response Time (Seconds) 0 Time / Response Time (Seconds) 0 Time, Average: pre-treatment (0 minutes)
Protocol: For the tail-flick assay, groups of four male or female ICR mice weighing 22±2 g were used, and the test compound dissolved in 2% Tween 80/0.9% NaCl was administered intraperitoneally. The compound was administered intraperitoneally at 4, 8, 16 or 32 mg/kg, using 2% Tween 80—0.9% NaCl as the vehicle. Controls received vehicle alone. Morphine-HCl at a dose of 10 mg/kg was used as a positive control. At the pre-treatment point (0 minutes) a focused beam of radiant heat was applied to the middle dorsal surface of the tail to elicit a tail-flick response. […] The time required to elicit a pain response was recorded for each animal at 30 minutes following administration of the test compound. A prolongation of 50% or more ≧50% of the time required to elicit tail-flick response indicated possible analgesic activity.

human μ-opiate receptor = target: T1, human μ-opiate receptor (Homo sapiens, UniProt P35372); experiment: In vitro opiate receptor radioligand binding assay, μ; settings: test compound 10 μM
T1 construct: purchased MDS Pharma Services 260410
Protocol: To characterise the target specificity of the compounds, KRS-5-150 and KRS-6-26 were tested at a concentration of 10 μM for their ability to inhibit the binding of a radioligand to human δ-, κ-, or μ-opiate receptors in vitro using commercially available assays (MDS Pharma Services; assay catalogue numbers 260110, 260210 and 260410 respectively).
Percentage inhibition of radioligand binding to human opioid receptors in vitro by test compounds (10 μM)

T1 sequence (P35372 whole entry): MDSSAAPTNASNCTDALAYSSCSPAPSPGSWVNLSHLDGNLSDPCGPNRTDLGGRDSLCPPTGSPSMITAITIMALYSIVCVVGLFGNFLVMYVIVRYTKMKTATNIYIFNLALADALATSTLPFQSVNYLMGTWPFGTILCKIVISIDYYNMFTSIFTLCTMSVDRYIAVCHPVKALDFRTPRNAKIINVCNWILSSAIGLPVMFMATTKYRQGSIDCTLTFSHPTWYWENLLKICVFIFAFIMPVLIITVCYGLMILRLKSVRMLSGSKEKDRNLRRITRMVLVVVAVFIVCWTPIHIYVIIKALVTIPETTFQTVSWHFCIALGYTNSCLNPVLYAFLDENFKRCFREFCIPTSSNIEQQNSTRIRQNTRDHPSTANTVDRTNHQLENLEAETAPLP

## Oc1ccc2c3c1O[C@H]1[C@@H](O)C=C[C@H]4[C@@H](C2)N(CCCNC(=Nc2ccccc2)Nc2ccccc2)CC[C@@]341 [KRS-5-150, (5α,6α)-7,8 didehydro-4,5-epoxy-17-(N,N′-bisphenylcarboxamidino-3-aminopropyl)morphinan,3,6-diol]
ICR mice; 4 mg/kg
  % Inhibition (prolongation of tail-flick response time): 5%
  Response Time (Seconds) 30 Mins., Average: 6.6 s
  Response Time (Seconds) 0 Time: 6.3 Seconds (2×) and 6.4 Seconds and 6.2 Seconds
  Response Time (Seconds) 0 Time, Average: 6.3 s
ICR mice; 4 mg/kg, 4 mg/kg
  Response Time (Seconds) 30 Mins.: 6.2 Seconds (2×) and 6.4 Seconds and 7.4 Seconds
ICR mice; 8 mg/kg
  % Inhibition (prolongation of tail-flick response time): 3%
  Response Time (Seconds) 30 Mins., Average: 6.6 s
  Response Time (Seconds) 0 Time: 6.3 Seconds (2×) and 6.5 Seconds and 6.4 Seconds
  Response Time (Seconds) 0 Time, Average: 6.4 s
ICR mice; 8 mg/kg, 8 mg/kg
  Response Time (Seconds) 30 Mins.: 6.4 s and 6.8 s and 6.5 s and 6.7 s
ICR mice; 16 mg/kg
  % Inhibition (prolongation of tail-flick response time): 2%
  Response Time (Seconds) 30 Mins., Average: 6.4 s
  Response Time (Seconds) 0 Time: 6.2 Seconds (2×) and 6.3 Seconds and 6.4 Seconds
  Response Time (Seconds) 0 Time, Average: 6.3 s
ICR mice; 16 mg/kg, 16 mg/kg
  Response Time (Seconds) 30 Mins.: 6.3 s and 6.5 s and 6.2 s and 6.4 s
ICR mice; 32 mg/kg
  % Inhibition (prolongation of tail-flick response time): 19%
  Response Time (Seconds) 30 Mins., Average: 7.6 s
  Response Time (Seconds) 0 Time: 6.5 Seconds and 6.3 Seconds (2×) and 6.4 Seconds
  Response Time (Seconds) 0 Time, Average: 6.4 s
ICR mice; 32 mg/kg, 32 mg/kg
  Response Time (Seconds) 30 Mins.: 6.7 s and 8.7 s and 6.5 s and 8.4 s
ICR mice; 4, 8, 16 and 32 mg/kg
  analgesic activity in tail-flick assay (≧50% prolongation): none of the four doses used showed significant activity
Human μ-opiate receptor
  Percentage inhibition of radioligand binding, μ-opiate receptor: 98%
